≈ marks a conversion by molar mass, not a printed value.
Assays:
[1] = biological target: T1, Carnitine O-palmitoyltransferase 1, muscle isoform (Homo sapiens, UniProt Q92523); assay: SUPPLEMENTARY: Inhibition of Carnitine palmitoyltransferase 1, muscle isoform; set-up: species or system Muscle tissue
T1 sequence (Q92523 whole entry): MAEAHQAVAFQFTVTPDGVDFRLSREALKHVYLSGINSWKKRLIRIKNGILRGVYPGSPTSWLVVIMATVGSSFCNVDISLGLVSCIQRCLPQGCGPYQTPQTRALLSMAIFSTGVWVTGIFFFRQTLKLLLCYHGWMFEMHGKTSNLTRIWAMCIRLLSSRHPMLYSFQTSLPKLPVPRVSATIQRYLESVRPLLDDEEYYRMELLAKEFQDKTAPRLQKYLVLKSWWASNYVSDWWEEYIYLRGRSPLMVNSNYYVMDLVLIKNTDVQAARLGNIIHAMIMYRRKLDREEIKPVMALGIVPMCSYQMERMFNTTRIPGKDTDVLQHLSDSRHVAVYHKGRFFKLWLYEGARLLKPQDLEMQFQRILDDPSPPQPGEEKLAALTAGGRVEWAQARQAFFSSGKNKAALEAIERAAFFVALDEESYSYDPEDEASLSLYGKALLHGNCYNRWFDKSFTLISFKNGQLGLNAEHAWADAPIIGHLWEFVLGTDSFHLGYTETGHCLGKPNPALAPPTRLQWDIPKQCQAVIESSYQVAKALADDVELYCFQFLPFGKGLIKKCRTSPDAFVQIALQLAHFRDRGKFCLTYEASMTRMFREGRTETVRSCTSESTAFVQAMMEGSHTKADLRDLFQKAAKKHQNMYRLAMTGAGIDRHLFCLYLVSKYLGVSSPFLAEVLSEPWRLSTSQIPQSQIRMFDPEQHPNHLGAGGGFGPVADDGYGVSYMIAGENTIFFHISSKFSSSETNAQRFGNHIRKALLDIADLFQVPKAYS

[2] = biological target: T2, Carnitine O-palmitoyltransferase 2, mitochondrial (Homo sapiens, UniProt P23786); assay: (§1) SUPPLEMENTARY: Inhibition of Carnitine palmitoyltransferase 2
T2 sequence (P23786 whole entry): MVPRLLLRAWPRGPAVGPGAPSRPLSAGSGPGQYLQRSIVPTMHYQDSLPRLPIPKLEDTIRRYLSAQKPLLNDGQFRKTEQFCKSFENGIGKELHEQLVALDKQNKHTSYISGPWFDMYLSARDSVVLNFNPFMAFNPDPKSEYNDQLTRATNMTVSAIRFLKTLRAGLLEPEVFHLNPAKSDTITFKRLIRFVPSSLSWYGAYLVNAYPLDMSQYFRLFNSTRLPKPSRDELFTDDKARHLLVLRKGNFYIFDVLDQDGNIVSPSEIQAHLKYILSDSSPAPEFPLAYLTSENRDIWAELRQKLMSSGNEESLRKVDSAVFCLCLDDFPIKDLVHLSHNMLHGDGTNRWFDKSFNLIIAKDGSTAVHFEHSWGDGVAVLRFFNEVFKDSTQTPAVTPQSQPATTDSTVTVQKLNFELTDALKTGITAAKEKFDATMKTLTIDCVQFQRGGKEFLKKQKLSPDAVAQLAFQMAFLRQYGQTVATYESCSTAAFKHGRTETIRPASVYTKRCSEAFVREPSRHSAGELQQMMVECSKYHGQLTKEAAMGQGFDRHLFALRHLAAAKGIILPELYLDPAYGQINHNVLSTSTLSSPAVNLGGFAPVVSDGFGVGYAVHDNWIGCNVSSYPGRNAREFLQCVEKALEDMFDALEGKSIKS

[3] = biological target: T3, Carnitine O-palmitoyltransferase 2, mitochondrial (Rattus norvegicus, UniProt P18886); assay: as §1
T3 sequence (P18886 whole entry): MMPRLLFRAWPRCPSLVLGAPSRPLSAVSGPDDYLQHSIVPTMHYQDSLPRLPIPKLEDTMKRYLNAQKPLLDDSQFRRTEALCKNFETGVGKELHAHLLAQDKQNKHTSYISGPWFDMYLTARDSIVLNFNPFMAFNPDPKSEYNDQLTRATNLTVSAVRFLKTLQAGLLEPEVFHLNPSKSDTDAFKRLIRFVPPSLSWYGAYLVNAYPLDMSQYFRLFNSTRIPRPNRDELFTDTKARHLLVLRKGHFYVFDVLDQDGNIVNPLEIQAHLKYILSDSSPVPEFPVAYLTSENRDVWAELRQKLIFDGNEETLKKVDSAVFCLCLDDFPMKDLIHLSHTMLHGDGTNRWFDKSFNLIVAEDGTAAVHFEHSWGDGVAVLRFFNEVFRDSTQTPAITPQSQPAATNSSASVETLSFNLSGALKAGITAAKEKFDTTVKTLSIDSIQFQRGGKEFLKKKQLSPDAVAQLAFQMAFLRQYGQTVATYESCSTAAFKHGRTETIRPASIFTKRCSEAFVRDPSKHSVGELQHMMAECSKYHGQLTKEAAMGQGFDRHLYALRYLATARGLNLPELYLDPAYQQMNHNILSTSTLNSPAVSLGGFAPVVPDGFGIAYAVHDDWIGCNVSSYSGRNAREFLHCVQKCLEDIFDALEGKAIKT

[4] = biological target: T4, Carnitine O-palmitoyltransferase 1, liver isoform (Homo sapiens, UniProt P50416); assay: (§2) SUPPLEMENTARY: Inhibition of Carnitine palmitoyltransferase 1, liver isoform
T4 sequence (P50416 whole entry): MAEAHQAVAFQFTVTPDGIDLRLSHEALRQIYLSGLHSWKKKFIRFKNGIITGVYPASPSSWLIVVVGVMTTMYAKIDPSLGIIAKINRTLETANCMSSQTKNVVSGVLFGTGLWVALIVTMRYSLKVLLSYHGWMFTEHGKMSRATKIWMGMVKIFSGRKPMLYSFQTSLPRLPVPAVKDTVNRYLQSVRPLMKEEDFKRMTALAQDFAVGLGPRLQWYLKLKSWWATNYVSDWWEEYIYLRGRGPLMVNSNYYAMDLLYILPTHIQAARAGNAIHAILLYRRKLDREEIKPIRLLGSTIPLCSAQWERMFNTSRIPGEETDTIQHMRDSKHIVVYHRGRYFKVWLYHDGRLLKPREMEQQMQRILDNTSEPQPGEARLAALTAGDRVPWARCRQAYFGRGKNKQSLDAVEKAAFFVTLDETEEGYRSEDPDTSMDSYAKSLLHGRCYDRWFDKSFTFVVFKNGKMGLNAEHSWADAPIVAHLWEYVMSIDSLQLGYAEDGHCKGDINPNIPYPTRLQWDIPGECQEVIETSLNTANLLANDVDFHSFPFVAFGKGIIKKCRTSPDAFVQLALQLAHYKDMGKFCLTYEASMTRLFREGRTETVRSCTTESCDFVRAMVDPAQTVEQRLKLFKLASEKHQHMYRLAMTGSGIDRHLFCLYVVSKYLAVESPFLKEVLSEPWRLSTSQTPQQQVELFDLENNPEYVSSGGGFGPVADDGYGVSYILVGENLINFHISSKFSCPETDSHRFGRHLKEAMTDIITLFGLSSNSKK

[5] = biological target: T5, Carnitine O-palmitoyltransferase 1, liver isoform (Rattus norvegicus, UniProt P32198); assay: as §2
T5 sequence (P32198 whole entry): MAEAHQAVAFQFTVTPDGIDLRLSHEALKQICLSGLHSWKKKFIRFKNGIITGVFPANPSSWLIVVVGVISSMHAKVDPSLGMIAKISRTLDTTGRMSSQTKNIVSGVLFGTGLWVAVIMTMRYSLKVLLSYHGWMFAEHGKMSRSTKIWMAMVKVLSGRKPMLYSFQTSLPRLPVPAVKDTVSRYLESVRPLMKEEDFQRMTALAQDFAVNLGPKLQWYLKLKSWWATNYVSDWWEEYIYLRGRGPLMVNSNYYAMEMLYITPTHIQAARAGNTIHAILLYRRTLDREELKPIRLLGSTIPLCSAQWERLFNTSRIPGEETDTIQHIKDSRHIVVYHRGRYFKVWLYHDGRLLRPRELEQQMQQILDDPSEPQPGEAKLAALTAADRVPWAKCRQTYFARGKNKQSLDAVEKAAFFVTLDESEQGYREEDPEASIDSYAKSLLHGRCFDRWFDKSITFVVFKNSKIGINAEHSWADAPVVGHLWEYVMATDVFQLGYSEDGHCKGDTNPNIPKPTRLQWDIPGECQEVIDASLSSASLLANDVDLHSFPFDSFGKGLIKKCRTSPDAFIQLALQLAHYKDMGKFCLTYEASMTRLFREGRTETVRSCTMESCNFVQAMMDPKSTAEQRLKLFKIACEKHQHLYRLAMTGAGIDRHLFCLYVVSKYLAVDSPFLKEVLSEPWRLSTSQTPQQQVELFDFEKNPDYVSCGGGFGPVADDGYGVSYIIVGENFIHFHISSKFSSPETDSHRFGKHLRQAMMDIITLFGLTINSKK

[6] = SUPPLEMENTARY: Lyophilisation Solubility Assay (LYSA); type: physicochemical; conditions: read-out: Kinetic_solubility
[7] = SUPPLEMENTARY: Lipophilicity (log D) Determination by high-throughput shake-flask; type: physicochemical; conditions: octanol/water
[8] = SUPPLEMENTARY: PAMPA permeability assay; type: physicochemical; conditions: read-out: Permeability

| IC50 [1] | IC50 [2] | IC50 [3] | IC50 [4] | IC50 [5] | solubility kinetic [6] | logD [7] | Papp [8] | Compound |
| --- | --- | --- | --- | --- | --- | --- | --- | --- |
| > 100 µM | > 100 µM | > 100 µM | 0.221 µM | 0.225 µM | 22 µg/mL (≈ 62.3 µM) | 2.22 | 5.94 ×10⁻⁶ cm/s | O=C(COc1ccccc1)N1CCCC[C@@H]1c1noc(-c2cc[nH]n2)n1 |
| > 100 µM | > 100 µM | > 100 µM | 0.0794 µM | 0.916 µM | 46.5 µg/mL (≈ 115 µM) | 2.22 | 2.14 ×10⁻⁶ cm/s | O=C(COc1ccccc1)N1CCCC[C@@H]1c1noc(-c2ccc3[nH]nnc3c2)n1 |
| > 100 µM | 42.7 µM | > 100 µM | 0.11 µM | 0.372 µM | 61 µg/mL (≈ 161 µM) | 2.47 | 4.86 ×10⁻⁶ cm/s | Nc1cc(-c2nc([C@H]3CCCCN3C(=O)COc3ccccc3)no2)ccn1 |
| > 100 µM | 21.2 µM | > 100 µM | 0.0941 µM | 0.458 µM | 23 µg/mL (≈ 53.1 µM) | 2.38 | 1.83 ×10⁻⁶ cm/s | O=C1CNc2ccc(-c3nc([C@H]4CCCCN4C(=O)COc4ccccc4)no3)cc2N1 |
| > 100 µM | 29.3 µM | > 100 µM | 0.108 µM | 0.565 µM | 101 µg/mL (≈ 274 µM) | 2.96 | 2.69 ×10⁻⁶ cm/s | O=C(COc1ccccc1)N1CCCC[C@@H]1c1nc(-c2cccs2)n[nH]1 |

Further lines, the compound ahead of its results:

| Compound | IC50 [1] | IC50 [2] | IC50 [3] | IC50 [4] | IC50 [5] | solubility kinetic [6] | logD [7] | Papp [8] |
| --- | --- | --- | --- | --- | --- | --- | --- | --- |
| O=C(COc1ccccc1)N1CCCC[C@@H]1c1nc(-c2cccc(-n3cn[nH]c3=O)c2)no1 | > 100 µM | 51.5 µM | > 100 µM | 0.0963 µM | 0.456 µM | 40 µg/mL (≈ 89.6 µM) | 2.42 | 4.87 ×10⁻⁶ cm/s |
| NC(=O)COc1cccc(-c2noc([C@H]3CCCCN3C(=O)COc3ccccc3)n2)c1 | > 100 µM | 18.5 µM | > 100 µM | 0.0636 µM | 0.147 µM | 57 µg/mL (≈ 131 µM) | 2.51 | 2.49 ×10⁻⁶ cm/s |
| COc1ccc(Cl)cc1S(=O)(=O)N1CCS(=O)(=O)c2ccc(C(=O)Nc3ccc(C(=O)O)cc3)cc21 | > 100 µM | > 100 µM | > 100 µM | 0.03 µM | 0.0126 µM | 3 µg/mL (≈ 5.44 µM) | 2.68 | 1.9 ×10⁻⁶ cm/s |
| Cc1cc(C)cc(S(=O)(=O)n2ccc3ccc(C(=O)Nc4ccc(C(=O)O)cc4)cc32)c1 | > 100 µM | 1.94 µM | 6.48 µM | 0.0353 µM | 0.0291 µM | 1 µg/mL (≈ 2.23 µM) | > 3 | 1.46 ×10⁻⁶ cm/s |
| COc1ccc(Cl)cc1CN1C(=O)C2(CC2)c2ccc(C(=O)Nc3nc(CC(=O)O)cs3)cc21 | 2.76 µM | > 100 µM | > 100 µM | 0.0911 µM | 0.0348 µM | 48 µg/mL (≈ 96.4 µM) | 2.7 | 1.03 ×10⁻⁶ cm/s |
| O=C([C@H]1CCCCN1C(=O)COc1ccccc1)N1Cc2ccc(C3CCOCC3)cc2C1 | > 100 µM | 0.642 µM | 0.477 µM | 0.0638 µM | 0.0641 µM | 14 µg/mL (≈ 31.2 µM) | 2.8 | 4.45 ×10⁻⁶ cm/s |
| COc1ccc(Cl)cc1S(=O)(=O)N1CCOc2c(Cl)cc(C(=O)Nc3nc(CC(=O)O)cs3)cc21 | 1.18 µM | > 100 µM | > 100 µM | 0.0503 µM | 0.054 µM | 12 µg/mL (≈ 21.5 µM) | 2.28 | 2.6 ×10⁻⁶ cm/s |
| COc1ccc(Cl)cc1S(=O)(=O)N1CCOc2c(F)cc(C(=O)Nc3ccc(C(=O)O)c(F)c3)cc21 | 4.56 µM | 1.53 µM | 6.51 µM | 0.0575 µM | 0.0567 µM | 7 µg/mL (≈ 13 µM) | 0.52 | 1.66 ×10⁻⁶ cm/s |
| COc1ccc(Cl)cc1S(=O)(=O)N1CC(C(=O)O)Oc2ccc(C(=O)Nc3ccccc3)cc21 (configuration not stated) | 27.3 µM | > 100 µM | > 100 µM | 0.0345 µM | 0.0259 µM | 446 µg/mL (≈ 887 µM) | -0.45 | 0.03 ×10⁻⁶ cm/s |

Reference: ChEMBL document CHEMBL3431459, “Roche carnitine palmitoyltransferase modulator screening data (supplementary data associated with the publication CHEMBL2216752)”
